Target: GST tagged IRAK4 (Homo sapiens (Human), UniProt Q9NWZ3)
Test: Determination of IRAK4 kinase activity (IMAP fluorescence polarization)
Type: biochemical
Details: 0.5 nM GST tagged IRAK4, 100 nM fluorescent peptide substrate RP7030, 100 μM ATP, 30 minutes at 25° C.
Procedure: The kinase activity of IRAK4 is determined by its ability to catalyze the phosphorylation of a fluorescent polypeptide substrate. The extent of phosphorylation is measured using IMAP technology (Molecular Devices) where the phosphorylated fluorescent substrate binds to the large M(III)-based nanoparticles which reduces the rotational speed of the substrate and thus increases its fluorescent polarization (FP).
Procedure: A 20 μl reaction mixture contains 10 mM TriHCl, pH 7.2, 0.5 nM GST tagged IRAK4 (SignalChem), 100 nM fluorescent peptide substrate (RP7030, Molecular Devices), 100 μM ATP, 1 mM DTT, 1 mM MgCl2, and 0.01% Tween 20. The reaction is initiated by the addition of ATP. After incubation for 30 minutes at 25° C., 60 μl of Progressive IMAP Reagent (Molecular Devices) is added to stop the reaction. Change in RP7030's FP is determined by a FP reader (Analyst HT, LJL BioSystems).

GST tagged IRAK4, sequence (Q9NWZ3 whole entry): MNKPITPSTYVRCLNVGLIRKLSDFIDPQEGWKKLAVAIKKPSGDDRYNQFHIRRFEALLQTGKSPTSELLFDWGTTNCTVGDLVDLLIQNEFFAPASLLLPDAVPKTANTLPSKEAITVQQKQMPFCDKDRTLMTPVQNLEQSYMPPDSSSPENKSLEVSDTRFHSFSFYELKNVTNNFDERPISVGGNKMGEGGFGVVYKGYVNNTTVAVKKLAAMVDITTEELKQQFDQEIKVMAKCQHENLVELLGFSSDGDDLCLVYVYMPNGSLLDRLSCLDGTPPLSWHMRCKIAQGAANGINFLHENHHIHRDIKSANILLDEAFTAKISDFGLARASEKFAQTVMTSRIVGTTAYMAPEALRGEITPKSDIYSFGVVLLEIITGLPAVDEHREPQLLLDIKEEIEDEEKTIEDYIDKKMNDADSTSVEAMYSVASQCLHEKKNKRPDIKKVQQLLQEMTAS

Row | SMILES | IC50
1 | Cn1cc(NC(=O)c2cccc(-c3ccnc(NCC4CC4)c3)n2)c(C(=O)N2CC(CN)C2)n1 [Example 42, N-(3-(3-(aminomethyl)azetidine-1-carbonyl)-1-methyl-1H-pyrazol-4-yl)-2′-((cyclopropylmethyl)amino)-[2,4′-bipyridine]-6-carboxamide] | 190 nM
2 | Cn1cc(NC(=O)c2cccc(-c3ccnc(NCC4CC4)c3)n2)c(C(=O)NC2CCOC2)n1 (stereo not shown) [Example 51, 2′-((cyclopropylmethyl)amino)-N-(1-methyl-3-((tetrahydrofuran-3-yl)carbamoyl)-1H-pyrazol-4-yl)-[2,4′-bipyridine]-6-carboxamide] | 2280 nM
3 | CN(C)CCCCCNC(=O)c1nn(C)cc1NC(=O)c1cccc(-c2ccnc(NCC3CC3)c2)n1 [Example 37, 2′-((cyclopropylmethyl)amino)-N-(3-((5-(dimethylamino)pentyl)carbamoyl)-1-methyl-1H-pyrazol-4-yl)-[2,4′-bipyridine]-6-carboxamide] | 2190 nM
4 | CN1CCC(CNC(=O)c2nn(C)cc2NC(=O)c2cccc(-c3ccnc(NCC4CC4)c3)n2)C1 (stereo not shown) [Example 34, 2′-((cyclopropylmethyl)amino)-N-(1-methyl-3-(((1-methylpyrrolidin-3-yl)methyl)carbamoyl)-1H-pyrazol-4-yl)-[2,4′-bipyridine]-6-carboxamide] | 729 nM
5 | Cn1cc(NC(=O)c2cccc(-c3ccnc(NCC(F)(F)F)c3)n2)c(C(N)=O)n1 [Example 18, N-(3-carbamoyl-1-methyl-1H-pyrazol-4-yl)-2′-((2,2,2-trifluoroethyl)amino)-[2,4′-bipyridine]-6-carboxamide] | 127 nM
6 | Cn1cc(NC(=O)c2cccc(-c3ccc(N4CCOCC4)nc3)n2)c(C(N)=O)n1 [Example 23, N-(3-carbamoyl-1-methyl-1H-pyrazol-4-yl)-6′-morpholino-[2,3′-bipyridine]-6-carboxamide] | 1100 nM
7 | Cn1cc(NC(=O)c2cccc(-c3ccc(C4CC4)nc3)n2)c(C(N)=O)n1 [Example 28, N-(3-carbamoyl-1-methyl-1H-pyrazol-4-yl)-6′-cyclopropyl-[2,3′-bipyridine]-6-carboxamide] | 94 nM
8 | Cn1cc(NC(=O)c2ccnc(-c3ccnc(NCC4CC4)c3)c2)c(C(N)=O)n1 [Example 5, N-(3-carbamoyl-1-methyl-1H-pyrazol-4-yl)-2′-(cyclopropylmethylamino)-2,4′-bipyridine-4-carboxamide] | 1450 nM
9 | Cn1cc(NC(=O)c2cccc(-c3ccnc(NCC4CC4)c3)n2)c(C(=O)NCCc2cnccn2)n1 [Example 44, 2′-((cyclopropylmethyl)amino)-N-(1-methyl-3-((2-(pyrazin-2-yl)ethyl)carbamoyl)-1H-pyrazol-4-yl)-[2,4′-bipyridine]-6-carboxamide] | 2670 nM
10 | Cn1cc(NC(=O)c2cccc(-c3ccnc(NCC(F)F)c3)n2)c(C(N)=O)n1 [Example 16, N-(3-carbamoyl-1-methyl-1H-pyrazol-4-yl)-2′-((2,2-difluoroethyl)amino)-[2,4′-bipyridine]-6-carboxamide] | 196 nM
11 | COc1ncccc1-c1cccc(C(=O)Nc2cn(C)nc2C(N)=O)n1 [Example 20, N-(3-carbamoyl-1-methyl-1H-pyrazol-4-yl)-2′-methoxy-[2,3′-bipyridine]-6-carboxamide] | 2130 nM
12 | Cn1cc(NC(=O)c2cccc(-c3ccnc(NCC4CCOCC4)c3)n2)c(C(N)=O)n1 [Example 17, N-(3-carbamoyl-1-methyl-1H-pyrazol-4-yl)-2′-(((tetrahydro-2H-pyran-4-yl)methyl)amino)-[2,4′-bipyridine]-6-carboxamide] | 477 nM
13 | Cn1cc(NC(=O)c2cccc(N3CCOCC3)n2)c(C(N)=O)n1 [Example 9, N-(3-carbamoyl-1-methyl-1H-pyrazol-4-yl)-6-morpholinopicolinamide] | 3220 nM
14 | CNC(=O)c1cccc(-c2cccc(C(=O)Nc3cn(C)nc3C(N)=O)n2)c1 [Example 24, N-(3-carbamoyl-1-methyl-1H-pyrazol-4-yl)-6-(3-(methylcarbamoyl)phenyl)picolinamide] | 201 nM
15 | Cn1ncc(NC(=O)c2cccc(-c3ccnc(NCC4CC4)c3)n2)c1C(N)=O [Example 8, N-(5-carbamoyl-1-methyl-1H-pyrazol-4-yl)-2′-(cyclopropylmethylamino)-2,4′-bipyridine-6-carboxamide] | 2720 nM
16 | Cn1cc(NC(=O)c2cncc(-c3ccnc(NCC4CC4)c3)c2)c(C(N)=O)n1 [Example 7, N-(3-carbamoyl-1-methyl-1H-pyrazol-4-yl)-2′-(cyclopropylmethylamino)-3,4′-bipyridine-5-carboxamide] | 1100 nM
17 | Cn1cc(NC(=O)c2cccc(-c3cncc(Cl)c3)n2)c(C(N)=O)n1 [Example 29, N-(3-carbamoyl-1-methyl-1H-pyrazol-4-yl)-5′-chloro-[2,3′-bipyridine]-6-carboxamide] | 91 nM

Row | SMILES | IC50
18 | CN(C)[C@H]1CN(C(=O)c2nn(C)cc2NC(=O)c2cccc(-c3ccnc(NCC4CC4)c3)n2)C[C@@H]1O [Example 46, 2′-((cyclopropylmethyl)amino)-N-(3-((3S,4S)-3-(dimethylamino)-4-hydroxypyrrolidine-1-carbonyl)-1-methyl-1H-pyrazol-4-yl)-[2,4′-bipyridine]-6-carboxamide] | 186 nM
19 | Cn1cc(NC(=O)c2cccc(-c3ccnc(NCC4CC4)c3)n2)c(C(=O)Nc2cncnc2)n1 [Example 43, 2′-((cyclopropylmethyl)amino)-N-(1-methyl-3-(pyrimidin-5-ylcarbamoyl)-1H-pyrazol-4-yl)-[2,4′-bipyridine]-6-carboxamide] | 1580 nM
20 | CN1CCN(C(=O)c2nn(C)cc2NC(=O)c2cccc(-c3ccnc(NCC4CC4)c3)n2)CC1 [Example 39, 2′-((cyclopropylmethyl)amino)-N-(1-methyl-3-(4-methylpiperazine-1-carbonyl)-1H-pyrazol-4-yl)-[2,4′-bipyridine]-6-carboxamide] | 2910 nM
21 | CN1CCCC(CNC(=O)c2nn(C)cc2NC(=O)c2cccc(-c3ccnc(NCC4CC4)c3)n2)C1 (stereo not shown) [Example 49, 2′-((cyclopropylmethyl)amino)-N-(1-methyl-3-(((1-methylpiperidin-3-yl)methyl)carbamoyl)-1H-pyrazol-4-yl)-[2,4′-bipyridine]-6-carboxamide] | 260 nM
22 | Cn1cc(NC(=O)c2cccc(-c3cccnc3)n2)c(C(N)=O)n1 [Example 12, N-(3-carbamoyl-1-methyl-1H-pyrazol-4-yl)-[2,3′-bipyridine]-6-carboxamide] | 212 nM
23 | COCCNc1cc(-c2cccc(C(=O)Nc3cn(C)nc3C(N)=O)n2)ccn1 [Example 15, N-(3-carbamoyl-1-methyl-1H-pyrazol-4-yl)-2′-((2-methoxyethyl)amino)-[2,4′-bipyridine]-6-carboxamide] | 187 nM
24 | Cn1cc(NC(=O)c2cccc(-c3ccsc3)n2)c(C(N)=O)n1 [Example 22, N-(3-carbamoyl-1-methyl-1H-pyrazol-4-yl)-6-(thiophen-3-yl)picolinamide] | 362 nM
25 | Cn1cc(NC(=O)c2cccc(-c3cccc(OC(F)(F)F)c3)n2)c(C(N)=O)n1 [Example 21, N-(3-carbamoyl-1-methyl-1H-pyrazol-4-yl)-6-(3-(trifluoromethoxy)phenyl)picolinamide] | 2260 nM
26 | Cn1cc(NC(=O)c2cccc(-n3cccc3)n2)c(C(N)=O)n1 [Example 2, N-(3-carbamoyl-1-methyl-1H-pyrazol-4-yl)-6-(1H-pyrrol-1-yl)picolinamide] | 649 nM
27 | Cn1cc(NC(=O)c2cccc(-c3ccnc(N)c3)n2)c(C(N)=O)n1 [Example 6, 2′-amino-N-(3-carbamoyl-1-methyl-1H-pyrazol-4-yl)-[2,4′-bipyridine]-6-carboxamide] | 101 nM
28 | Cn1cc(NC(=O)c2cccc(-c3ccncc3)n2)c(C(N)=O)n1 [Example 11, N-(3-carbamoyl-1-methyl-1H-pyrazol-4-yl)-2,4′-bipyridine-6-carboxamide] | 1900 nM
29 | CN(C)CCCNC(=O)c1nn(C)cc1NC(=O)c1cccc(-c2ccnc(NCC3CC3)c2)n1 [Example 40, 2′-((cyclopropylmethyl)amino)-N-(3-((3-(dimethylamino)propyl)carbamoyl)-1-methyl-1H-pyrazol-4-yl)-[2,4′-bipyridine]-6-carboxamide] | 535 nM
30 | Cn1cc(NC(=O)c2ccnc(-c3ccnc(NCC4CC4)c3)n2)c(C(N)=O)n1 [Example 19, N-(3-carbamoyl-1-methyl-1H-pyrazol-4-yl)-2-(2-((cyclopropylmethyl)amino)pyridin-4-yl)pyrimidine-4-carboxamide] | 283 nM
31 | Cn1cc(NC(=O)c2cccc(C3=CCCOC3)n2)c(C(N)=O)n1 [Example 27, N-(3-carbamoyl-1-methyl-1H-pyrazol-4-yl)-6-(5,6-dihydro-2H-pyran-3-yl)picolinamide] | 134 nM
32 | Cn1cc(NC(=O)c2cccc(-c3ccnc(NCC4CC4)c3)n2)c(C(=O)NCc2ncc[nH]2)n1 [Example 36, N-(3-(((1H-imidazol-2-yl)methyl)carbamoyl)-1-methyl-1H-pyrazol-4-yl)-2′-((cyclopropylmethyl)amino)-[2,4′-bipyridine]-6-carboxamide] | 1540 nM
33 | Cn1cc(NC(=O)c2cccc(N3CCNCC3)n2)c(C(N)=O)n1 [Example 10, N-(3-carbamoyl-1-methyl-1H-pyrazol-4-yl)-6-(piperazin-1-yl)picolinamide] | 3450 nM
34 | COc1cccc(-c2cccc(C(=O)Nc3cn(C)nc3C(N)=O)n2)c1 [Example 13, N-(3-carbamoyl-1-methyl-1H-pyrazol-4-yl)-6-(3-methoxyphenyl)picolinamide] | 637 nM

Source: patent US9586948B2, “Inhibitors of IRAK4 activity” (MERCK SHARP & DOHME CORP., priority 2012, dated 2017)
